# Measurements: publication PMC6798786 (Brain Communications, 2019)
# Structures can show the parent of a compound that is named as a salt. Where two headings read alike, the source gives them in different places.
# What was measured:
# human H1 = human H1 (Homo sapiens, UniProt P35367); assay: radioligand binding (NIMH PDSP); details: read-out: Ki H1
# Procedure: (§1) All in vitro binding assay and Ki data studies were performed by the US National Institute of Mental Health Psychoactive Drug Screening Program (NIMH PDSP). For these studies, drugs were screened against recombinant, stably expressed human 5-HT2AR, 5-HT2BR, 5-HT2CR and H1, as described at https://pdspdb.unc.edu/pdspWeb/ ([Besnard et al., 2012]).
# human 5-HT2AR = human 5-HT2AR (Homo sapiens, UniProt P28223); assay: radioligand binding (NIMH PDSP)
# human 5-HT2AR, sequence (P28223 whole entry): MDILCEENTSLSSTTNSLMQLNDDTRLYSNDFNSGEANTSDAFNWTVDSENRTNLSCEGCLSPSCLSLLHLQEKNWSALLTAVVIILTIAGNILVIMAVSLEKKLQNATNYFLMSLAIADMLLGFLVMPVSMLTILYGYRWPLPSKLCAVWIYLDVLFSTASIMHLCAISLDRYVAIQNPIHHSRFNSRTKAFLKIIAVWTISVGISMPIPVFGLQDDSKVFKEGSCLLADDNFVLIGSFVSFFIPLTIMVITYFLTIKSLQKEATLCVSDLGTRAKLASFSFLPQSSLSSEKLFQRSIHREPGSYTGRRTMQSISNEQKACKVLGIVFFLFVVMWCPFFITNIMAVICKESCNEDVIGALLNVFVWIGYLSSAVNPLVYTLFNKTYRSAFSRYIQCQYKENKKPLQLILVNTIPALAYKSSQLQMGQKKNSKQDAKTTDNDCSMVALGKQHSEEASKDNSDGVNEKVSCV
# Procedure: as §1
# human 5-HT2BR = human 5-HT2BR (Homo sapiens, UniProt P41595); assay: radioligand binding (NIMH PDSP); details: read-out: Ki 5-HT2BR
# human 5-HT2BR, sequence (P41595 whole entry): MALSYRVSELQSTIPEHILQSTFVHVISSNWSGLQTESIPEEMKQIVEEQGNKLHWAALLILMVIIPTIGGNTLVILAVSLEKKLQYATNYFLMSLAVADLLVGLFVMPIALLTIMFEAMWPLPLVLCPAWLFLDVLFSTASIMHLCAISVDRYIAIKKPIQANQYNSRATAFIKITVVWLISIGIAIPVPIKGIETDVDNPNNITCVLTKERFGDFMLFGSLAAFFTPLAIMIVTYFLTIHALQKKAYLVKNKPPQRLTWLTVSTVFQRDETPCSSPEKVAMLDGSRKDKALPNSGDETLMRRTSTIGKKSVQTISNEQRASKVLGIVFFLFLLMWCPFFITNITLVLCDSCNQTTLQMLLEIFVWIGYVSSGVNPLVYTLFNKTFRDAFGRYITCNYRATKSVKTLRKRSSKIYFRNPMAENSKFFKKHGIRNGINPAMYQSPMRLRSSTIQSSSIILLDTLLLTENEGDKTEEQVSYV
# Procedure: as §1
# human 5-HT2CR [1] = target: T1, human 5-HT2CR (Homo sapiens, UniProt P28335); assay: radioligand binding (NIMH PDSP)
# T1 sequence (P28335 33-458): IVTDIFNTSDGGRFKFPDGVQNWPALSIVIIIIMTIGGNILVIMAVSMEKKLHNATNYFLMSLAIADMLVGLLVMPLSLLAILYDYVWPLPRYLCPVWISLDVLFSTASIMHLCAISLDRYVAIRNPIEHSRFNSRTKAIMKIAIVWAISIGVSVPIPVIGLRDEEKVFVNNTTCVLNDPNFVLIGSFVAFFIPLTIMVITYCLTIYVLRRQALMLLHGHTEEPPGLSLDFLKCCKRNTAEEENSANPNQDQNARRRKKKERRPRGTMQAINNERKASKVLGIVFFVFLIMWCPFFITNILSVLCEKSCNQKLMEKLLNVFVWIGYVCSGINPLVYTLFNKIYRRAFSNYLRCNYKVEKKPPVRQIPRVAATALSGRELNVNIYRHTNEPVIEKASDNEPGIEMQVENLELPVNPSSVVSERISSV
# Procedure: as §1
# [2] = test system: scn1lab mutant zebrafish larvae; assay: toxicity check of larvae after 90 min drug exposure (heartbeat, escape response); assay type: in vivo, Danio rerio; details: 90 min exposure; for toxicity in initial analogue screening: 100 µM or 250 µM
# Procedure: For locomotion studies, zebrafish larvae (5 days post-fertilization) were placed into a single well of a clear flat-bottomed 96-well microplate containing embryo media. Sex determination is not possible at this stage of development. All drug screening experiments were conducted in an unbiased manner by investigators blinded to the test compounds and all files coded for post hoc analysis. The 96-well plate containing larvae was then placed inside a DanioVision box where they were allowed to acclimate (20 min; room temperature). EthoVision XT software (DanioVision, Noldus Information Technology) was used to obtain locomotion plots (10 min in duration). […] All locomotion plots were analysed for distance travelled (in millimetres) and mean velocity (in millimetres per second). After 90 min of drug exposure larvae were examined for toxic side-effects. Compounds that decreased or stopped the larva heartbeat, or reduced or eliminated the escape response when touched, were considered toxic.
# scn1lab mutant zebrafish = assay: locomotion (mean swim velocity) seizure-like behaviour assay in scn1lab mutant zebrafish larvae; assay type: in vivo, Danio rerio; details: for change in vivo at 100 µM / change in vivo at 250 µM: Danio rerio; for effect on seizure-like swim behaviour, commercially available compounds: three concentrations; for effect on seizure-like swim behaviour, initial library screen: 100 µM or 250 µM, UCSF-synthesized compound
# Procedure: For locomotion studies, zebrafish larvae (5 days post-fertilization) were placed into a single well of a clear flat-bottomed 96-well microplate containing embryo media. Sex determination is not possible at this stage of development. All drug screening experiments were conducted in an unbiased manner by investigators blinded to the test compounds and all files coded for post hoc analysis. The 96-well plate containing larvae was then placed inside a DanioVision box where they were allowed to acclimate (20 min; room temperature). EthoVision XT software (DanioVision, Noldus Information Technology) was used to obtain locomotion plots (10 min in duration). Seizure scoring was performed, as described ([Baraban et al., 2005]). All locomotion plots were analysed for distance travelled (in millimetres) and mean velocity (in millimetres per second). After 90 min of drug exposure larvae were examined for toxic side-effects. Compounds that decreased or stopped the larva heartbeat, or reduced or eliminated the escape response when touched, were considered toxic.
# For behaviour analysis, the threshold for a change in mean swim velocity ≥40% is considered significant (>1.5× SD of 250 control treated scn1lab). Unless otherwise indicated, all data in this manuscript are presented as the mean ± standard error of the mean. […] Statistically significant differences are indicated with asterisks (*P < 0.05; **P < 0.01; ***P < 0.001). […]
# human 5-HT2CR [3] = target: T1, human 5-HT2CR; details: commercially available compounds known to bind 5-HT2BR; ref Roth et al., 2000; read-out: 5-HT2CR (nM), Table S3; cited from earlier work
# [4] = recombinant, stably expressed human receptor, clemizole analogues
# [5] = read-out: % change in velocity, individual larva 1 (heat map)
# [6] = read-out: % change in velocity, individual larva 2 (heat map)
# [7] = read-out: % change in velocity, individual larva 3 (heat map)
# [8] = read-out: % change in velocity, individual larva 4 (heat map)
# [9] = read-out: % change in velocity, individual larva 5 (heat map)
# [10] = read-out: % change in velocity, individual larva 6 (heat map)
# [11] = read-out: mean velocity change from six fish, Trial 1
# [12] = read-out: mean velocity change from six fish, Trial 2
# human H1, sequence (P35367 whole entry): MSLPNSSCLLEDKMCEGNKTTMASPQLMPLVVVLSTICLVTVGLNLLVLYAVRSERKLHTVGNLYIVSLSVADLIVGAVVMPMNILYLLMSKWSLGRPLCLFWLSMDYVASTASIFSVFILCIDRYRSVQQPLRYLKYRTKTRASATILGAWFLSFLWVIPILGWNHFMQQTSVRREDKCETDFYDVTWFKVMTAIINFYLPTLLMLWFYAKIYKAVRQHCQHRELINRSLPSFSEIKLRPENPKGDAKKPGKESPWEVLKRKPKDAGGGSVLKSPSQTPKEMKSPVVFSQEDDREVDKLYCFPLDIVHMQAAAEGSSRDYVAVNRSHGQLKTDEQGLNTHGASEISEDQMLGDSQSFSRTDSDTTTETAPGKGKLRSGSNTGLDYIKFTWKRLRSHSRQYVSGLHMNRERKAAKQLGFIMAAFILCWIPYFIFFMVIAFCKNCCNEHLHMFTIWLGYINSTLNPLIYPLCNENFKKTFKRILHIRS
structure (smiles),measurement,setting,value
FC1(F)CCN(Cc2nc3ccccc3n2Cc2ccc(Cl)cc2)CC1 [Compound 27],Ki,human H1; [4],0.442 µM
same,Ki,human 5-HT2AR; [4],> 10 µM
same,Ki,human 5-HT2BR; [4],> 10 µM
same,Ki,human 5-HT2CR [1]; [4],7.15 µM
same,toxicity in initial analogue screening,[2],toxic
c1ccc(Cn2c(CN3CCCC3)nc3ccccc32)cc1 [Compound 3],Ki,human H1; [4],0.0048 µM
same,Ki,human 5-HT2AR; [4],0.327 µM
same,Ki,human 5-HT2BR; [4],0.083 µM
same,Ki,human 5-HT2CR [1]; [4],0.292 µM
Clc1ccc(Cn2c(CN3CCCC3)cc3ccccc32)cc1 [Compound 11],Ki,human H1,0.0064 µM
same,Ki,human 5-HT2AR,0.631 µM
same,Ki,human 5-HT2BR,0.134 µM
same,Ki,human 5-HT2CR [1],0.248 µM
same,change in vivo at 100 µM,scn1lab mutant zebrafish; [5],39.3%
same,change in vivo at 250 µM,scn1lab mutant zebrafish; [5],-100%
same,change in vivo at 100 µM,scn1lab mutant zebrafish; [6],403%
same,change in vivo at 250 µM,scn1lab mutant zebrafish; [6],-100%
same,change in vivo at 100 µM,scn1lab mutant zebrafish; [7],91.2%
same,change in vivo at 250 µM,scn1lab mutant zebrafish; [7],-100%
same,change in vivo at 100 µM,scn1lab mutant zebrafish; [8],120%
same,change in vivo at 250 µM,scn1lab mutant zebrafish; [8],-100%
same,change in vivo at 100 µM,scn1lab mutant zebrafish; [9],149%
same,change in vivo at 250 µM,scn1lab mutant zebrafish; [9],-100%
same,change in vivo at 100 µM,scn1lab mutant zebrafish; [10],66.8%
same,change in vivo at 250 µM,scn1lab mutant zebrafish; [10],-100%
same,change in vivo at 100 µM,scn1lab mutant zebrafish; [11],124%
same,change in vivo at 250 µM,scn1lab mutant zebrafish; [11],-100%
same,change in vivo at 100 µM,scn1lab mutant zebrafish; [12],124%
"CN1CCc2cccc3c2[C@H]1Cc1ccc(O)c(O)c1-3 [apomorphine, (−)-Apomorphine hydrochloride, reference compound]","effect on seizure-like swim behaviour, commercially available compounds",scn1lab mutant zebrafish; 30 and 90 min exposure,significantly increased mean swim velocity
CC(N)Cc1c[nH]c2ccc(OCc3cccs3)cc12 (centres unmarked) [reference compound],Ki,human 5-HT2CR [3],115 nM
same,"effect on seizure-like swim behaviour, commercially available compounds",scn1lab mutant zebrafish; 30 and 90 min exposure,failed to reach our significance threshold
Clc1ccc(Cn2c(CN3CCSC3)nc3ccccc32)cc1 [Compound 28],Ki,human H1; [4],0.044 µM
same,Ki,human 5-HT2AR; [4],> 10 µM
same,Ki,human 5-HT2BR; [4],0.464 µM
same,Ki,human 5-HT2CR [1]; [4],1.08 µM
Clc1ccc(Cn2c(CN3CCCCC3)nc3ccccc32)cc1 [Compound 22],Ki,human H1; [4],0.0085 µM
same,Ki,human 5-HT2AR; [4],0.623 µM
same,Ki,human 5-HT2BR; [4],0.306 µM
same,Ki,human 5-HT2CR [1]; [4],4.58 µM
same,toxicity in initial analogue screening,[2],toxic
Nc1ccc(Cn2c(CN3CCCC3)nc3ccccc32)cc1 [Compound 14],Ki,human H1; [4],0.027 µM
same,Ki,human 5-HT2AR; [4],> 10 µM
same,Ki,human 5-HT2BR; [4],0.606 µM
same,Ki,human 5-HT2CR [1]; [4],> 10 µM
same,"effect on seizure-like swim behaviour, initial library screen",scn1lab mutant zebrafish,no significant effect on swim behaviour
same,"effect on seizure-like swim behaviour, retest of independently synthesized compound","scn1lab mutant zebrafish; 10, 50, 100 and 250 µM, 30 and 90 min exposure",no significant effect on the swim behaviour
Clc1ccc(Cn2ccnc2CN2CCCC2)cc1 [Compound 9],Ki,human H1,0.029 µM
same,Ki,human 5-HT2AR,> 10 µM
same,Ki,human 5-HT2BR,> 10 µM
same,Ki,human 5-HT2CR [1],0.447 µM
same,"effect on seizure-like swim behaviour, initial library screen",scn1lab mutant zebrafish,effective in suppressing
same,change in vivo at 100 µM,scn1lab mutant zebrafish; [5],-13.5%
same,change in vivo at 250 µM,scn1lab mutant zebrafish; [5],-94%
same,change in vivo at 100 µM,scn1lab mutant zebrafish; [6],-0.7%
same,change in vivo at 250 µM,scn1lab mutant zebrafish; [6],-100%
same,change in vivo at 100 µM,scn1lab mutant zebrafish; [7],-34.9%
same,change in vivo at 250 µM,scn1lab mutant zebrafish; [7],-22.5%
same,change in vivo at 100 µM,scn1lab mutant zebrafish; [8],-57.3%
same,change in vivo at 250 µM,scn1lab mutant zebrafish; [8],-100%
same,change in vivo at 100 µM,scn1lab mutant zebrafish; [9],34.4%
same,change in vivo at 250 µM,scn1lab mutant zebrafish; [9],-38.8%
same,change in vivo at 100 µM,scn1lab mutant zebrafish; [10],-33.2%
same,change in vivo at 250 µM,scn1lab mutant zebrafish; [10],-100%
same,change in vivo at 100 µM,scn1lab mutant zebrafish; [11],-28.1%
same,change in vivo at 250 µM,scn1lab mutant zebrafish; [11],-73.2%
same,change in vivo at 100 µM,scn1lab mutant zebrafish; [12],-28.1%
same,change in vivo at 250 µM,scn1lab mutant zebrafish; [12],-100%
same,toxicity at 250 µM,[2]; 250 µM,toxic
